Molecules are shown by their SMILES. pKd: −log10 of the molar value.

hCereblon(M1-L442)_hDDB1(M1-H1140), sequence (Q96SW2 whole entry, looked up): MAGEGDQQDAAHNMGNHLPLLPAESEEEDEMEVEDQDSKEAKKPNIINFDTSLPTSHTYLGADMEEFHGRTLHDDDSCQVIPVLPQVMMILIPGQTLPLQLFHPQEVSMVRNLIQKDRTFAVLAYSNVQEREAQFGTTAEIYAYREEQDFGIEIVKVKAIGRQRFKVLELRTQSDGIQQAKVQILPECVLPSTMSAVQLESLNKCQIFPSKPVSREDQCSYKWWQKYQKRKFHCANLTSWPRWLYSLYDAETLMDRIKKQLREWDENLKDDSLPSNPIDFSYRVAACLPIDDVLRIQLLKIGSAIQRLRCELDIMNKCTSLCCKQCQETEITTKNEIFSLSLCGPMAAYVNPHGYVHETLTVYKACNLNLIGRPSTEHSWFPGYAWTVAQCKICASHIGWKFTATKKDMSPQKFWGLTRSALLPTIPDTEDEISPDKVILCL
hCereblon(M1-L442)_hDDB1(M1-H1140), sequence (Q16531 whole entry partner, looked up): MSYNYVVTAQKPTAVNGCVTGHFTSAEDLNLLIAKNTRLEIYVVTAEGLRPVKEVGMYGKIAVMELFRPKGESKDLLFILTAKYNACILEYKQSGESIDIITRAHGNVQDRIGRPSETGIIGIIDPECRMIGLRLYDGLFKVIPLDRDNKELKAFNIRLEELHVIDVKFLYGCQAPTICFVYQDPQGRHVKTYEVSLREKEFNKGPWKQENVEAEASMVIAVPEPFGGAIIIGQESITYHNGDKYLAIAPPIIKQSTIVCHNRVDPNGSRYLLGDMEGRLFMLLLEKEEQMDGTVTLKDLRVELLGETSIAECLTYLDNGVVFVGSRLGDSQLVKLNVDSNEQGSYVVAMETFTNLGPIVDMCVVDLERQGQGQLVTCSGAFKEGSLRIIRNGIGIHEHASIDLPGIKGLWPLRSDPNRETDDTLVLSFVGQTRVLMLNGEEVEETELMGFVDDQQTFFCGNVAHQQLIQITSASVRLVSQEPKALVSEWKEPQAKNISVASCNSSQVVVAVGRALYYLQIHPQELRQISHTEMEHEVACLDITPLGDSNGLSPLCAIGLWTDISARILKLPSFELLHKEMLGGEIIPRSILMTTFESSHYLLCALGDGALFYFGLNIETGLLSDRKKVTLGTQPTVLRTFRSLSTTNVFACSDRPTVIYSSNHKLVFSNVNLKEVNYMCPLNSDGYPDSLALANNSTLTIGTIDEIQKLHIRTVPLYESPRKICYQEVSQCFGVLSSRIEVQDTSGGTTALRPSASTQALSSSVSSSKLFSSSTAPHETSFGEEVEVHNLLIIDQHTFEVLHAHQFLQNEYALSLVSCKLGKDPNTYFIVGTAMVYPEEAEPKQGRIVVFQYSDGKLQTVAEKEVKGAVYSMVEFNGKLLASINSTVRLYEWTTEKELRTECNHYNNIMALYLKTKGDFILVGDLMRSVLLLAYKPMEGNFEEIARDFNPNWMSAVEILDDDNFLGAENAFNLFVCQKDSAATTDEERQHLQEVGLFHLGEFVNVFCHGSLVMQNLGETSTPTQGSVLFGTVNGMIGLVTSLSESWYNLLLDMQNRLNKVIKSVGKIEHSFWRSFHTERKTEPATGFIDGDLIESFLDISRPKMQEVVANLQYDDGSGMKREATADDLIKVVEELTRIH

The assay concerns the target hCereblon(M1-L442)_hDDB1(M1-H1140) (Homo sapiens (Human), UniProt Q96SW2). Description: Fluorescence direct binding (tryptophan fluorescence titration). As to conditions: 20° C., excitation 280 nm, emission 340 nm, 50 mM Hepes 7.4 200 mM NaCl; read-out: Fluorescence h-Cereblon_DDB1 Mean Kd_EQ.
Procedure: Fluorescence Direct Binding Protocol
Determination of the affinities of compounds to protein containing one or more tryptophan is measurable by monitoring the fluorescence emission in direct mode. The measurements, depending on the protein available amounts, were performed either manually in a cuvette on ISS-PCI photon counting spectrofluorometer or automatically in well plates on a fluorescence plate reader device. Fluorescence titrations were performed at 20° C. in the chosen binding assay buffer by using a defined constant protein concentration against ligand concentration variations. Small aliquots of known ligand concentration solubilized in DMSO were added and the fluorescence, excited at 280 nm, was recorded at 340 nm.
For `O=C1CCC2(CCN(C(=O)c3ccc4ncoc4c3)C2)C(=O)N1` (stereo not drawn) [Example 46, 2-(benzo[d]oxazole-6-carbonyl)-2,7-diazaspiro[4.5] decane-6,8-dione], the pKd was 8.00.

Consider `O=C1CCC2(CCN(C(=O)c3ccc4c(c3)CCN4)C2)C(=O)N1` (stereo not drawn) [Example 47, 2-(indoline-5-carbonyl)-2,7-diazaspiro[4.5] decane-6,8-dione], for which the pKd was 8.40.

With `CC(=O)Nc1nc2cc(C(=O)N3CCC4(CCC(=O)NC4=O)C3)ccc2s1` (stereo not drawn) [Example 50, N-(5-(6,8-dioxo-2,7-diazaspiro[4.5]decane-2-carbonyl)benzo[d]thiazol-2-yl)acetamide], the pKd was 7.35.

In the case of `CC(=O)Nc1nc2ccc(C(=O)N3CCC4(CCC(=O)NC4=O)C3)cc2s1` (stereo not drawn) [Example 51, N-(6-(6,8-dioxo-2,7-diazaspiro[4.5]decane-2-carbonyl)benzo[d]thiazol-2-yl)acetamide], the pKd is 7.03.

With `CC(=O)N1CCc2cc(C(=O)N3CCC4(CCC(=O)NC4=O)C3)ccc21` (stereo not drawn) [Example 52, 2-(1-acetylindoline-5-carbonyl)-2,7-diazaspiro[4.5] decane-6,8-dione], the pKd is 7.39.

For `CC(C)(C)OC(=O)Nc1nc2cc(C(=O)N3CCC4(CCC(=O)NC4=O)C3)ccc2s1` (stereo not drawn) [Example 53, tert-butyl (5-(6,8-dioxo-2,7-diazaspiro[4.5]decane-2-carbonyl)benzo[d]thiazol-2-yl)carbamate], the pKd was 8.22.

On to `CC(C)(C)OC(=O)Nc1nc2ccc(C(=O)N3CCC4(CCC(=O)NC4=O)C3)cc2s1` (stereo not drawn) [Example 54, tert-butyl (6-(6,8-dioxo-2,7-diazaspiro[4.5]decane-2-carbonyl)benzo[d]thiazol-2-yl)carbamate], for which the pKd is 8.40.

As for `Nc1nc2ccc(C(=O)N3CCC4(CCC(=O)NC4=O)C3)cc2s1` (stereo not drawn) [Example 55, 2-(2-aminobenzo [d]thiazole-6-carbonyl)-2,7-diazaspiro [4.5]decane-6,8-dione], the pKd was 7.59.

As for `O=C1NC(=O)C2(CCN(C(=O)[C@H]3CCCc4ccccc43)CC2)N1` [Example 58, (S)-8-(1,2,3,4-tetrahydronaphthalene-1-carbonyl)-1,3,8-triazaspiro[4.5]decane-2,4-dione], the pKd was 8.40.

For `O=C1NC(=O)C2(CCN(C(=O)[C@@H]3CCCc4ccccc43)CC2)N1` [Example 59, (R)-8-(1,2,3,4-tetrahydronaphthalene-1-carbonyl)-1,3,8-triazaspiro[4.5]decane-2,4-dione], the pKd is 8.30.

In the case of `O=C1NC(=O)C2(CCN(C(=O)c3ccccc3)CC2)N1` [Example 60, 8-benzoyl-1,3,8-triazaspiro[4.5]decane-2,4-dione], the pKd was 8.70.

Turning to `O=C1NC(=O)C2(CCN(c3nc4ccccc4s3)CC2)N1` [Example 61, 8-(benzo[d]thiazol-2-yl)-1,3,8-triazaspiro[4.5]decane-2,4-dione], the pKd is 8.70.

Turning to `O=C1NC(=O)C2(CCN(C(=O)c3coc4ccccc34)CC2)N1` [Example 66, 8-(benzofuran-3-carbonyl)-1,3,8-triazaspiro[4.5] decane-2,4-dione], the pKd was 9.00.

As to `O=C1NC(=O)C2(CCN(C(=O)c3cnn4ccccc34)CC2)N1` [Example 67, 8-(pyrazolo[1,5-a]pyridine-3-carbonyl)-1,3,8-triazaspiro[4.5] decane-2,4-dione], the pKd is more than 9.00.

Take `O=C1NC(=O)C2(CCN(c3ccc([N+](=O)[O-])cn3)CC2)N1` [Example 69, 8-(5-nitropyridin-2-yl)-1,3,8-triazaspiro[4.5] decane-2,4-dione]: the pKd is 8.15.

`O=C1CC2(CCN(c3ccc([N+](=O)[O-])cn3)CC2)C(=O)N1` [Example 70, 8-(5-nitropyridin-2-yl)-2,8-diazaspiro[4.5] decane-1,3-dione]: the pKd is 7.64.

Regarding `O=C1CC2(CCN(c3nc4ccccc4s3)CC2)C(=O)N1` [Example 71, 8-(benzo[d]thiazol-2-yl)-2,8-diazaspiro[4.5] decane-1,3-dione], the pKd is 8.70.

As to `O=C1NC(=O)C2(CCN(c3ccc([N+](=O)[O-])cc3)CC2)N1` [Example 72, 8-(4-nitrophenyl)-1,3,8-triazaspiro[4.5] decane-2,4-dione], the pKd is more than 9.00.

On to `COC(=O)c1ccc(N2CCC3(CC2)CC(=O)NC3=O)nc1` [Example 74, methyl 6-(1,3-dioxo-2,8-diazaspiro[4.5]decan-8-yl)nicotinate], for which the pKd is 7.96.

In the case of `O=C1CC2(CCN(C(=O)c3ccccc3)CC2)C(=O)N1` [Example 75, 8-benzoyl-2,8-diazaspiro[4.5] decane-1,3-dione], the pKd was more than 9.00.

`O=C1NC(=O)C2(CCN(C(=O)c3ccc4scnc4c3)CC2)N1` [Example 81, 8-(benzo[d]thiazole-5-carbonyl)-1,3,8-triazaspiro[4.5] decane-2,4-dione]: the pKd is 8.22.
